The values that follow come from patent US20240173293A1 (Sanofi, priority 2021, published 2024).

Read-outs that look alike come from different tables or passages of the source.

Series [1] in a line: Amcenestrant PK parameters at steady state in patients. The class given is in vivo, human. The following applies: for AUC(0-t) / Cmax / Tmax / concentration at 0 h: human, plasma, oral; for Tmax: read-out: Tmax (median); for concentration at 0 h: read-out: Ctrough (arithmetic mean).
For series [2] the following is noted: cited from earlier work.
The conditions of series [3]: pooled analysis, 1666 patients treated with palbociclib; cited from earlier work.
Series [4] can be described thus: Published palbociclib exposure data (A5481001, A5481003, A5481008, Ibrance label). The class given is in vivo. The following applies: human, plasma; A5481001, A5481003, A5481008, N=57; read-out: AUC0-24 h, reference: geometric mean of individual studies weighed by number of subjects (converted).
For series [5] the following is noted: cited from earlier work. The source holds these as a separate data set.
Where [6] appears, read: amcenestrant 200 mg with palbociclib, steady state Day 21, N=8.
The mark [7] stands for this setting: amcenestrant 400 mg monotherapy, steady state, N=13.
[8] abbreviates: amcenestrant 400 mg with palbociclib, steady state Day 21, N=5.

Consider `O=C(O)c1ccc2c(c1)CCCC(c1ccc(Cl)cc1Cl)=C2c1ccc(O[C@H]2CCN(CCCF)C2)cc1` [Amcenestrant, 6-(2,4-dichlorophenyl)-5-[4-[(3S)-1-(3-fluoropropyl)pyrrolidin-3-yl]oxyphenyl]-8,9-dihydro-7H-benzo[7]annulene-2-carboxylic acid], for which the “CLss/F (arithmetic mean)” value in series [1] (setting [6]) was 10.7 L/h; in series [1] (amcenestrant 200 mg with palbociclib, steady state Day 21, N=8, listed as amcenestrant), 10.7 ± 3.38 L/h; in series [1] (setting [7]), 10.6 L/h; in series [1] (amcenestrant 400 mg monotherapy, steady state, N=13, listed as amcenestrant), 10.6 ± 4.35 L/h; in series [1] (setting [8]), 13.5 L/h; in series [1] (amcenestrant 400 mg with palbociclib, steady state Day 21, N=5, listed as amcenestrant), 13.5 ± 5.36 L/h. Further, the results for the “Ctrough [geometric mean]” value in series [1] (setting [6]), in series [1] (setting [7]) and in series [1] (setting [8]) were “[215] ng/mL”, “[466] ng/mL” and “[248] ng/mL”, respectively. In addition, the “systemic clearance higher than after amcenestrant 400 mg QD single agent” value in series [1] (amcenestrant 400 mg with palbociclib, Day 21) is 28%. The AUC(0-t) was 20600 ng·h/mL in series [1] (female, 200 mg, amcenestrant 200 mg with palbociclib, steady state Day 21, N=8, read-out: AUC0-24h (arithmetic mean) (converted)); 33100 ng·h/mL in series [1] (female, 400 mg, amcenestrant 400 mg with palbociclib, steady state Day 21, N=5, read-out: AUC0-24h (arithmetic mean) (converted)); 31400 ng·h/mL in series [1] (female, 400 mg, amcenestrant 400 mg with palbociclib, steady state Day 21, N=5, read-out: AUC0-24h [geometric mean]); 19500 ng·h/mL in series [1] (200 mg, amcenestrant 200 mg with palbociclib, steady state Day 21, N=8, read-out: AUC0-24h [geometric mean]); 43200 ng·h/mL in series [1] (400 mg, amcenestrant 400 mg monotherapy, steady state, N=13, read-out: AUC0-24h (arithmetic mean) (converted)); 40400 ng·h/mL in series [1] (400 mg, amcenestrant 400 mg monotherapy, steady state, N=13, read-out: AUC0-24h [geometric mean]). In addition, the Cmax in series [1] (female, 200 mg, amcenestrant 200 mg with palbociclib, steady state Day 21, N=8, read-out: Cmax (arithmetic mean)) came to 2060 ng/mL; in series [1] (female, 400 mg, amcenestrant 400 mg with palbociclib, steady state Day 21, N=5, read-out: Cmax (arithmetic mean)) it was 4350 ng/mL; in series [1] (female, 400 mg, amcenestrant 400 mg with palbociclib, steady state Day 21, N=5, read-out: Cmax [geometric mean]), 3450 ng/mL; in series [1] (200 mg, amcenestrant 200 mg with palbociclib, steady state Day 21, N=8, read-out: Cmax [geometric mean]), 1940 ng/mL; in series [1] (400 mg, amcenestrant 400 mg monotherapy, steady state, N=13, read-out: Cmax (arithmetic mean)), 4380 ng/mL; in series [1] (400 mg, amcenestrant 400 mg monotherapy, steady state, N=13, read-out: Cmax [geometric mean]), 4220 ng/mL. Also, the Tmax in series [1] (female, 200 mg) worked out at 4.88 h; in series [1] (female, 400 mg), 4 h; in series [1] (400 mg) it was 3 h. Besides, the concentration at 0 h in series [1] (female, amcenestrant 200 mg with palbociclib, steady state Day 21, N=8) amounted to 226 ng/mL; in series [1] (female, amcenestrant 400 mg with palbociclib, steady state Day 21, N=5) it was 280 ng/mL; in series [1] (400 mg, amcenestrant 400 mg monotherapy, steady state, N=13) it was 630 ng/mL.
For `CC(=O)c1c(C)c2cnc(Nc3ccc(N4CCNCC4)cn3)nc2n(C2CCCC2)c1=O` [Palbociclib, 6-acetyl-8-cyclopentyl-5-methyl-2-{[5-(piperazin-1-yl)pyridin-2-yl]amino}pyrido[2,3-d]pyrimidin-7(8H)-one], the “decrease of exposure when combined with a moderate CYP3A inducer (modafinil)” value in series [2] (Ibrance U.S. label) is 32%. For the same molecule, the “Cmax, arithmetic mean (CV %)” value in series [2] (study A5481001, palbociclib monotherapy, steady state, N=4) is on record as 97.4 (41%) ng/mL. Moreover, the “Cmax, geometric mean (CV %)” value in series [2] (study A5481003, palbociclib monotherapy, steady state, N=12) is recorded as 116 (28%) ng/mL; in series [2] (study A5481008, palbociclib with letrozole, steady state, N=41) it was 110 (35%) ng/mL. Also, the “neutrophil count decrease, any grade” value in series [3] was 95.2%. Besides, the AUC(0-t) in series [4] was 1970 ng·h/mL. For the same molecule, the solubility entry in series [5] (Above pH 4) is “reduces significantly”; in series [5] (At or below pH 4), “high-solubility compound”.
